This passage reports IC50 results from patent US20250011272A1, “LONG-CHAIN COMPOUND THAT ACTS ON ACLY, PREPARATION METHOD THEREFOR AND USE THEREOF” (SHANGHAIINSTITUTE OF MATERIA MEDICA, CHINESE ACADEMY OF …, priority 2021, published 2025).

Like-named read-outs stand apart in the source and are kept apart here.

One assay addresses Human ACLY (Homo sapiens (Human), UniProt P53396). The assay can be described thus: ACLY enzyme activity test (ADP-Glo luminescence). Type of assay: biochemical. The note with it: 37° C., 30 minutes. An excerpt: • Instrument: Envision (PerkinElmer, USA) • Materials: Acl—human ACLY/acly/ATP citrate lyase protein (His tag) was purchased from Sino Biological; kinase assay kit ADP-GLO (promega #V9102).
Experimental principle: In this experiment, the ATP-dependent citrate lyase ACL catalyzes the conversion of citrate to acetyl coenzyme A, which in turn produces malonyl coenzyme A, a precursor molecule for fatty acid synthesis, and this reaction is accompanied by ATP depletion, so the change in ATP can be detected using the ADP-Glo Kinase Assay (#V9102) to indirectly reflect the inhibitory effect of the compound on the enzymatic activity of ACL. This kinase detection kit can quantitatively determine the amount of ADP catalyzed by ACLY enzyme activity. (First, the compound, the enzyme and the substrate are incubated at 37 degrees for half an hour, ADP-Glo& #V9102; reagent is added and incubated for half an hour to terminate the reaction and consume the remaining ATP; then the kinase detection reagent is added (which converts the ADP to ATP while also detecting the newly synthesized ATP using the coupled […] reaction) and incubated for half an hour. The value is read by using Envision.
Experimental method: ADP Glo luminescence method was used for determination. It reflects the activity of ACLY enzyme by quantitatively detecting the amount of ADP, and the enzymatic reaction catalyzed by ACLY is proportional to the amount of ADP detected by the luminescent signal. Firstly, the compound is diluted with 10% DMSO, and then […] of compound dilution is added to a 5 μl reaction system, so that the final reaction system has a DMSO content of 2%. The enzymatic reaction catalyzed by ACLY was carried out at 37° C. for 30 minutes. 5 μl reaction mixture contained the following components: 40 mM Tris, pH 8.0, 10 mM MgCl2, 5 mM DTT, ATP, CoA, sodium citrate, and ACLY. After the enzymatic reaction was complete, 2.5 μl of ADP Glo reagent was added to each reaction system and incubated at room temperature for 1 hour. Afterwards, 5 μl of kinase detection reagent was added and incubated at room temperature for 30 minutes. The luminous signal was detected using Envision (PerkinElmer, USA).
Data processing: For compound, the activity dose dependent relationship was tested. IC50 value was obtained by non-linear fitting of sample concentration based on sample activity. The software used for calculation was Graphpad Prism 7, and the model used for fitting was sigmoid dose response (variable slope). For most inhibitor screening models, the bottom and top of the fitting curve were set to 0 and 100. In general, each sample is set with multiple wells (n≥2) during testing, which are represented in the results as Standard Deviation (SD) or Standard Error (SE).
On the technique in general: ADP-Glo turns the ADP formed in a reaction into a luminescent signal.

The test system of another assay is breast cancer cell MCF-7. The assay can be described thus: MTS cell proliferation assay, MCF-7. It is filed as cell-based. The note with it: MCF-7, MTS, read-out: IC50, inhibition of proliferation, MCF-7. An excerpt: (§1) Experimental principle: CellTier 96 ® AQueous One Solution Cell Proliferation Assay (MTS) colorimetric method was used to detect cell proliferation. This analysis method is based on the tetrazole compound (3-(4,5-dimethylthiazol-2-yl)-5-(3-carboxymethoxyphenyl)-2-(4-sulfophenyl)-2H-tetrazolium, internal salt; MTS). The conversion of yellow MTS to blue purple water-soluble formazan is catalyzed by dehydrogenase, which exists in living cells with metabolic activity; Dead cells cannot complete the transformation from MTS to formamide. The amount of formazan determined by absorbance at 490 nm is directly proportional to the number of live cells in culture.
(§2) Sample processing: Dissolve the sample in DMSO and store it at low temperature.
(§3) Cell survival rate was detected by using MTS method, that is, adherent cells growing in logarithmic phase were digested with 0.025% trypsin, and counted; 80 μl cells were inoculated into a 96 well plate at a density of 3000 cells/well for A549 and 5000 cells/well for H358 (all cultured under 1% FBS conditions), and grown overnight in a 5% CO2 and 37° C. incubator. Each compound was diluted with a three-fold concentration gradient, eight concentrations were tested, and three wells were set for each concentration. 20 μl of the diluted compounds was added to the corresponding cell wells. Adherent cells A549 and H358 were cultured in a 5% CO2 and 37° C. incubator for 72 hours; 20 μl of MTS was added separately and incubated for 2 hours in a 5% CO2 and 37° C. incubator. Molecular Device VersaMax was used to test the light absorption value at 490 nm (L1), with a reference wavelength of 690 nm (L2). The (L1−L2) values were plotted against different concentrations of inhibitors and IC50 was obtained by fitting the formula.
(§4) The experimental results were fitted to the IC50 using Graphpad Prism 7. The model used for fitting was log(inhibitor) vs Response—variable slop, and the results of each assay were equipped with triple replicate wells to ensure the accuracy of the experiment. The results were expressed as Standard Deviation (SD) or Standard Error (SE).
(§5) Similarly, the antiproliferative assays of the compounds on pancreatic cancer cell line ASPC-1, human pancreatic cancer cell MIA-PACA and breast cancer cell MCF-7 were performed as above.

In assay [1] the test system is pancreatic cancer cell line ASPC-1. The assay is described as follows: MTS cell proliferation assay, ASPC-1. The note with it: ASPC-1, MTS, read-out: IC50, inhibition of proliferation, ASPC-1. It is filed as cell-based.
Text: as §1, §2, §3, §4, §5
On the technique in general: Tetrazolium dyes change colour on reduction, which living cells bring about.

Assay [2] deals with human pancreatic cancer cell MIA-PACA. The assay is described as follows: MTS cell proliferation assay, MIA-PACA. Type of assay: cell-based.
Text: as §1, §2, §3, §4, §5

In a further assay the test system is NCI-H358 cells. The assay is described as follows: MTS cell proliferation assay, H358. Type of assay: cell-based, human. The note with it: 1% FBS, read-out: IC50, inhibition of proliferation, H358.
Text: Experimental materials: NCI-H358 cells (H358, human non-small cell lung cancer cells) were purchased from the cell bank/stem cell bank of the Chinese Academy of Sciences; RPMI-1640 culture medium (GIBCO, product number 3180002), and human tumor cell non-small cell lung cancer cell A549 were gifted by the research group of researcher Li Jia from SHANGHAI INSTITUTE OF MATERIA MEDICA, CHINESE ACADEMY OF SCIENCES. CellTier 96® The Aquarius One Solution Cell Promotion Assay (MTS) was purchased from Promega #G3581.
as §1, §2, §3, §4

Chain of Human ACLY (P53396 whole entry): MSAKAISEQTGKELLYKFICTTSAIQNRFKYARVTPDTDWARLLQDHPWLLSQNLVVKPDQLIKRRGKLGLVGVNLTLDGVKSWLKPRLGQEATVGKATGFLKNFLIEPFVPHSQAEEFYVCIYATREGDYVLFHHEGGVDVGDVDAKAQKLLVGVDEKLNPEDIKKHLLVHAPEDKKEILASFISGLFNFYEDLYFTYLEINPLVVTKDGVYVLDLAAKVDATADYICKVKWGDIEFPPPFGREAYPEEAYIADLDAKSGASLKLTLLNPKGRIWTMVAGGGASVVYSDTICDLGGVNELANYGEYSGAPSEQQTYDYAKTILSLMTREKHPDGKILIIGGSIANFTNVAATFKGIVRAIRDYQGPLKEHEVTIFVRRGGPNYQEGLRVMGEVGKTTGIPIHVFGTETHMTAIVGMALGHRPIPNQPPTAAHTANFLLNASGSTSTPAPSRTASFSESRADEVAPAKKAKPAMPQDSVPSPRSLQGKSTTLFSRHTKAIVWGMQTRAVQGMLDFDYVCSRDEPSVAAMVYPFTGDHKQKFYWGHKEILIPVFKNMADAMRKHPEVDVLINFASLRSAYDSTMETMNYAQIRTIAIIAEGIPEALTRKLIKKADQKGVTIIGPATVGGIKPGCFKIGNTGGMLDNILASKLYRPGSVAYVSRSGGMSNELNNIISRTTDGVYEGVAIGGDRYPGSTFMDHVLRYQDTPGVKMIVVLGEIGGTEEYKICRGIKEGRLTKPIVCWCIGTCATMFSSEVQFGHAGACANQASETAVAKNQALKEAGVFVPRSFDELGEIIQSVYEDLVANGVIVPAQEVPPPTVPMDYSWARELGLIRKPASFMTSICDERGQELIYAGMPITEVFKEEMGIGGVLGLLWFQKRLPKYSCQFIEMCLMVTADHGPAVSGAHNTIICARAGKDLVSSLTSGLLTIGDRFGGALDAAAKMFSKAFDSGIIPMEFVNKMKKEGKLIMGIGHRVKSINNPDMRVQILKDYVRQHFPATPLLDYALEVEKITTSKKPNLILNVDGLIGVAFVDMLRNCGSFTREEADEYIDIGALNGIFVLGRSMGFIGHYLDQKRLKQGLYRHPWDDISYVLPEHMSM

Consider `O=C(O)C1(CCCCCCC=CCCCCCCC2(C(=O)OCCc3ccc(Cl)cc3Cl)C=CCC2)C=CCC1` (stereo not drawn) [Compound M19], for which the IC50 is 3.1 ± 1.3 µM against Human ACLY; 3.9 ± 0.5 µM with breast cancer cell MCF-7; 2.7 ± 1 µM in assay [1]; 1.9 ± 0.5 µM in assay [2] (read-out: IC50, inhibition of proliferation, MIA-PACA); 3.5 ± 0.4 µM in the assay on NCI-H358 cells (H358, 72 hours).
At Human ACLY, `O=C(O)C1(CCCCC/C=C\CCCCCCC2(C(=O)O)C=CCC2)C=CCC1` (stereo not drawn) [Compound M14] registered an IC50 of 7 ± 0.16 µM.
On the same count and under the same terms, for `COC(=O)C1(CCCCCC/C=C\CCCCCCC2(C(=O)O)C=CCC2)C=CCC1` (stereo not drawn) [Compound M21] the value was 3.8 ± 0.83 µM.
Still for that read-out and setting: for `O=C(O)C1(CCCCCCC(=C(CCCCCCC2(C(=O)O)C=CCC2)c2ccccc2)c2ccccc2)C=CCC1` (stereo not drawn) [Compound M35] the value was 0.9 ± 0.1 µM; for `O=C(O)C1(CCCCCC/C=C\CCCCCCC2(C(=O)OCCCc3ccc(Cl)cc3Cl)C=CCC2)C=CCC1` (stereo not drawn) [Compound M28], 17 ± 2.5 µM; for `CC(CCCC/C=C/CCCCCC(C)(C(=O)O)c1ccccc1)(C(=O)O)c1ccccc1` (stereo not drawn) [Compound M15], 52.2 ± 0.27 µM.
The same measure, in the same setting: the result for `CCOC(=O)C1(CCCCCC/C=C\CCCCCCC2(C(=O)O)C=CCC2)C=CCC1` (stereo not drawn) [Compound M20] reads 3.5 ± 1.7 µM; that for `C=CC(C)(CCCCCC/C=C\CCCCCCCC(C)(C=C)C(=O)O)C(=O)O` (stereo not drawn) [Compound M10], 1.9 ± 0.2 µM.
In turn, `CC[C@H](C)n1cc(C)c2c(C(=O)NCc3c(C)cc(C)[nH]c3=O)cc(-c3ccc(N4CCN(C(=O)CCCSC(=O)C(C)(C)CCCCC/C=C\CCCCCC(C)(C)C(=O)O)CC4)nc3)cc21` [Compound M33] gave an IC50 on Human ACLY of 3.3 ± 0.45 µM.
The same measure, in the same setting: for `COc1ccc(CCOC(=O)C2(CCCCCC/C=C\CCCCCCC3(C(=O)O)C=CCC3)C=CCC2)cc1` (stereo not drawn) [Compound M32] the value was 4.6 ± 1.3 µM; for `O=C(O)C1(CCCCCC/C=C\CCCCCCC2(C(=O)O)CC=CCC2)CC=CCC1` (stereo not drawn) [Compound M6], 5.3 ± 0.98 µM.
On Human ACLY, `Cc1ncsc1-c1ccc([C@H](C)NC(=O)[C@@H]2C[C@@H](O)CN2C(=O)[C@@H](NC(=O)C(C)(C)CCCCCC/C=C\CCCCCCC(C)(C)C(=O)O)C(C)(C)C)cc1` [Compound M34] gave an IC50 of 10.2 ± 0.3 µM.
The same measure, in the same setting: the result for `O=C(O)C1(CCCCCC/C=C\CCCCCCCC2(C(=O)O)C=CCC2)C=CCC1` (stereo not drawn) [Compound M13] reads 2.7 ± 0.8 µM; that for `CC(CCCC/C=C\CCCCCC(C)(C(=O)O)c1ccccc1)(C(=O)O)c1ccccc1` (stereo not drawn) [Compound M9], 11.2 ± 1.61 µM.
With `O=C(O)C1(CCCCCC/C=C\CCCCCCC2(C(=O)OCCc3ccc(F)cc3)C=CCC2)C=CCC1` (stereo not drawn) [Compound M25], the IC50 is 4 ± 0.86 µM against Human ACLY; 5.7 ± 1.5 µM in the assay on breast cancer cell MCF-7 (Homo sapiens, MCF7); 29.2 ± 11.4 µM in assay [1] (Homo sapiens, ASPC1); 11.9 ± 2.7 µM in assay [2] (Homo sapiens, MIA PaCa-2, read-out: IC50, inhibition of proliferation, MIA-PACA); 5.6 ± 0.5 µM in the assay on NCI-H358 cells (Homo sapiens, NCI-H358, H358, 72 hours).
On to `CC(C)(CCCCCC/C=C(/CCCCCCC(C)(C)C(=O)O)c1ccc(C(=O)N2CCN(c3ccccn3)CC2)cc1)C(=O)O` [Compound M37], for which, on Human ACLY, the IC50 came out at 5.21 ± 0.27 µM.
